# According to PubChem BioAssay AID1919001 (Molecular Pharmacology Branch, DTP, NCI, 2023):
# System: 699152-130-R-J1-PDC complex spheroid growth
# Assay: Anticancer human tumor 699152-130-R-J1-PDC patient-derived pancreatic carcinoma cell line growth inhibition [AhR]
# Conditions: for IC50: curve of first compound; for viability, T/C: stronger effect = lower value
# Description: Multicellular complex tumor spheroid response to aryl hydrocarbon receptor antagonists in combination with a variety of drugs and investigational agents in selected tumor cell lines
# The current study was undertaken to assess response to aryl hydrocarbon receptor antagonists in combination with standard-of-care drugs and investigational agents in solid tumor complex spheroid models. Complex spheroids include a stromal component modeled by human endothelial cells (HUVEC) and fibroblasts modeled by human mesenchymal stem cells (MSCs). The concentration ranges selected for each drug and investigational agent were based upon clinically achievable concentrations if the clinical Cmax of the agent was known.
# Compounds. The drugs and investigational agents: BAY 2416964 (NSC825713), GNF351 (NSC835774), CH-223191 (NSC835775), CPI-455 (NSC825282), aza-TdCyd (NSC777586), decitabine (NSC127716), belinostat (NSC758774), entinostat (NSC756642), pevonedistat (NSC761192), tazemetostat (NSC777109), talazoparib (NSC765396), olaparib (NSC753686), selinexor (NSC780203), nedisertib (M3814, NSC802822), bortezomib (NSC756655), venetoclax (NSC766270), doxorubicin (NSC123127), elimusertib (BAY189344, NSC800525), ceralasertib (AZD6738, NSC777638), TAK-243 (NSC785004), alisertib (NSC759677), etoposide (NSC141540), topotecan (NSC609699), eribulin (NSC707389), gemcitabine (NSC613327), carboplatin (NSC241240), cisplatin (NSC119875), and SN-38 (NSC673596) were obtained from the National Cancer Institute (NCI) Developmental Therapeutics Program Chemical Repository (32). The FDA-approved anticancer drug set is available from the Developmental Therapeutics Program at https://dtp.cancer.gov/organization/dscb/obtaining/available plates.htm. […] The stock solutions were prepared in dimethyl sulfoxide (DMSO, Sigma-Aldrich, St. Louis, MO, cat. D2650), except for the platinum compounds which were prepared in saline (Quality Biological, Gaithersburg, MD, cat. 114-055-101), at 800-fold the tested concentration and stored at -70 degrees C prior to their use. All drugs and investigational agents were tested over a range starting from a high concentration at or near the clinical Cmax and decreasing in half-log increments. If the clinical Cmax for an agent had not been determined, the highest concentration tested was 10 microM (Table 1).
# Cell Culture. All cells were maintained in an incubator at 37 degrees C and 5% CO2 with 95% humidity. The PDC lines were cultured according to standard operating procedures established by the NCI PDMR (https://pdmr.cancer.gov). Briefly, all PDCs were thawed and cultured in Matrigel-coated flasks prepared with a working solution of 1X Ham's F-12 nutrient mix, without supplementation (Invitrogen, Waltham, MA, cat. 11765054), 100 U/mL penicillin-streptomycin (Invitrogen, cat. 15140122), and 2.5% Matrigel (Corning Inc., Corning, NY, cat. 354248) for the first three passages. All PDCs were cultured in complete DMEM/F-12 media containing advanced DMEM/F-12 (Invitrogen, cat. 12634028), 4.9% defined fetal bovine serum, heat inactivated (HyClone Laboratories Inc., Logan, UT, cat. SH30070.03HI), 389 ng/mL hydrocortisone (Sigma-Aldrich, cat. H4001), 9.7 ng/mL human EGF recombinant protein (Invitrogen, cat. PHG0313), 23.4 microg/mL adenine (Sigma-Aldrich, cat. A2786), 97.3 U/mL penicillin-streptomycin (Invitrogen, cat. 15140122), 1.9 mM L-glutamine (Invitrogen, cat. 25030081), and 9.7 microM Y-27632 dihydrochloride (Tocris Bioscience, Bristol, United Kingdom, cat. 1254). The PDCs were cultured in complete DMEM/F12 media without 10 microM Y-27632 dihydrochloride for at least two passages prior to the screen. The established cell lines NCI-H1341 and […] were cultured in DMEM/F-12, HEPES (Invitrogen, cat. 11330032), 5% defined fetal bovine serum (HyClone Laboratories Inc., cat. SH30070.03), ITS premix universal culture supplement [insulin (5 microg/mL), transferrin (5 microg/mL), and selenious acid (5 ng/mL)] […]
# [1] = second compound 0.1 µM, first compound 0.00949 µM
# [2] = second compound 0.1 µM, first compound 0.03 µM
# [3] = second compound 0.1 µM, first compound 0.0949 µM
# [4] = second compound 0.1 µM, first compound 0.3 µM
# [5] = second compound 0.316 µM, first compound 0.00949 µM
# [6] = second compound 0.316 µM, first compound 0.03 µM
# [7] = second compound 0.316 µM, first compound 0.0949 µM
# [8] = second compound 0.316 µM, first compound 0.3 µM
# [9] = second compound 1 µM, first compound 0.00949 µM
# [10] = second compound 1 µM, first compound 0.03 µM
# [11] = second compound 1 µM, first compound 0.0949 µM
# [12] = second compound 1 µM, first compound 0.3 µM
# [13] = second compound 3.16 µM, first compound 0.00949 µM
# [14] = second compound 3.16 µM, first compound 0.03 µM
# [15] = second compound 3.16 µM, first compound 0.0949 µM
# [16] = second compound 3.16 µM, first compound 0.3 µM
# [17] = second compound 10 µM, first compound 0.00949 µM
# [18] = second compound 10 µM, first compound 0.03 µM
# [19] = second compound 10 µM, first compound 0.0949 µM
# [20] = second compound 10 µM, first compound 0.3 µM
# 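Note: compound exposure lasted 7 days after spheroids had grown for 3 days.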
structure (smiles),measurement,setting,value
CC1(C)CCC(CN2CCN(c3ccc(C(=O)NS(=O)(=O)c4ccc(NCC5CCOCC5)c([N+](=O)[O-])c4)c(Oc4cnc5[nH]ccc5c4)c3)CC2)=C(c2ccc(Cl)cc2)C1 + Cc1ccccc1N=Nc1ccc(NC(=O)c2ccnn2C)c(C)c1,IC50,second compound 0.1 µM,> 10000 nM
same,IC50,second compound 0.316 µM,> 10000 nM
same,IC50,second compound 1 µM,> 10000 nM
same,IC50,second compound 3.16 µM,> 10000 nM
same,IC50,second compound 10 µM,> 10000 nM
same,"viability, T/C","second compound 0.1 µM, first compound 0.0316 µM",93.7%
same,"viability, T/C","second compound 0.1 µM, first compound 0.1 µM",102%
same,"viability, T/C","second compound 0.1 µM, first compound 0.316 µM",103%
same,"viability, T/C","second compound 0.1 µM, first compound 1 µM",95.9%
same,"viability, T/C","second compound 0.1 µM, first compound 3.16 µM",101%
same,"viability, T/C","second compound 0.1 µM, first compound 10 µM",68%
same,"viability, T/C","second compound 0.316 µM, first compound 0.0316 µM",93.2%
same,"viability, T/C","second compound 0.316 µM, first compound 0.1 µM",103%
same,"viability, T/C","second compound 0.316 µM, first compound 0.316 µM",95.9%
same,"viability, T/C","second compound 0.316 µM, first compound 1 µM",95.5%
same,"viability, T/C","second compound 0.316 µM, first compound 3.16 µM",93.5%
same,"viability, T/C","second compound 0.316 µM, first compound 10 µM",74%
same,"viability, T/C","second compound 1 µM, first compound 0.0316 µM",103%
same,"viability, T/C","second compound 1 µM, first compound 0.1 µM",101%
same,"viability, T/C","second compound 1 µM, first compound 0.316 µM",104%
same,"viability, T/C","second compound 1 µM, first compound 1 µM",102%
same,"viability, T/C","second compound 1 µM, first compound 3.16 µM",101%
same,"viability, T/C","second compound 1 µM, first compound 10 µM",65.8%
same,"viability, T/C","second compound 3.16 µM, first compound 0.0316 µM",107%
same,"viability, T/C","second compound 3.16 µM, first compound 0.1 µM",95.2%
same,"viability, T/C","second compound 3.16 µM, first compound 0.316 µM",118%
same,"viability, T/C","second compound 3.16 µM, first compound 1 µM",102%
same,"viability, T/C","second compound 3.16 µM, first compound 3.16 µM",86.5%
same,"viability, T/C","second compound 3.16 µM, first compound 10 µM",71.8%
same,"viability, T/C","second compound 10 µM, first compound 0.0316 µM",114%
same,"viability, T/C","second compound 10 µM, first compound 0.1 µM",124%
same,"viability, T/C","second compound 10 µM, first compound 0.316 µM",118%
same,"viability, T/C","second compound 10 µM, first compound 1 µM",113%
same,"viability, T/C","second compound 10 µM, first compound 3.16 µM",108%
same,"viability, T/C","second compound 10 µM, first compound 10 µM",68.2%
CCN(c1cc(-c2ccc(CN3CCOCC3)cc2)cc(C(=O)NCc2c(C)cc(C)[nH]c2=O)c1C)C1CCOCC1 + CC(CO)NC(=O)c1cc(-c2ccc(Cl)cc2)nn(-c2cnn(C)c2)c1=O,IC50,second compound 0.1 µM,> 3000 nM
same,IC50,second compound 0.316 µM,> 3000 nM
same,IC50,second compound 1 µM,> 3000 nM
same,IC50,second compound 3.16 µM,> 3000 nM
same,IC50,second compound 10 µM,> 3000 nM
same,"viability, T/C",[1],97.8%
same,"viability, T/C",[2],105%
same,"viability, T/C",[3],99.2%
same,"viability, T/C",[4],96.2%
same,"viability, T/C","second compound 0.1 µM, first compound 0.949 µM",100%
same,"viability, T/C","second compound 0.1 µM, first compound 3 µM",102%
same,"viability, T/C",[5],107%
same,"viability, T/C",[6],99.4%
same,"viability, T/C",[7],96.6%
same,"viability, T/C",[8],94.5%
same,"viability, T/C","second compound 0.316 µM, first compound 0.949 µM",94.6%
same,"viability, T/C","second compound 0.316 µM, first compound 3 µM",99.4%
same,"viability, T/C",[9],105%
same,"viability, T/C",[10],106%
same,"viability, T/C",[11],108%
same,"viability, T/C",[12],97.3%
same,"viability, T/C","second compound 1 µM, first compound 0.949 µM",99.4%
same,"viability, T/C","second compound 1 µM, first compound 3 µM",111%
same,"viability, T/C",[13],97.1%
same,"viability, T/C",[14],89.1%
same,"viability, T/C",[15],104%
same,"viability, T/C",[16],91.2%
same,"viability, T/C","second compound 3.16 µM, first compound 0.949 µM",83.6%
same,"viability, T/C","second compound 3.16 µM, first compound 3 µM",95.1%
same,"viability, T/C",[17],93.9%
same,"viability, T/C",[18],92.2%
same,"viability, T/C",[19],95.1%
same,"viability, T/C",[20],85%
same,"viability, T/C","second compound 10 µM, first compound 0.949 µM",86.5%
same,"viability, T/C","second compound 10 µM, first compound 3 µM",87.5%
CC(C)CC(NC(=O)C(Cc1ccccc1)NC(=O)c1cnccn1)B(O)O (stereo not given) + Cc1ccccc1N=Nc1ccc(NC(=O)c2ccnn2C)c(C)c1,IC50,second compound 0.1 µM,15.4 nM
same,IC50,second compound 0.316 µM,15.5 nM
same,IC50,second compound 1 µM,15.4 nM
same,IC50,second compound 3.16 µM,15.1 nM
same,IC50,second compound 10 µM,17.1 nM
same,"viability, T/C","second compound 0.1 µM, first compound 0.000949 µM",86%
same,"viability, T/C","second compound 0.1 µM, first compound 0.003 µM",93%
same,"viability, T/C",[1],85.9%
same,"viability, T/C",[2],1.03%
same,"viability, T/C",[3],0.47%
same,"viability, T/C",[4],0.58%
same,"viability, T/C","second compound 0.316 µM, first compound 0.000949 µM",86%
same,"viability, T/C","second compound 0.316 µM, first compound 0.003 µM",105%
same,"viability, T/C",[5],86.9%
same,"viability, T/C",[6],0.65%
same,"viability, T/C",[7],0.35%
same,"viability, T/C",[8],0.4%
same,"viability, T/C","second compound 1 µM, first compound 0.000949 µM",97.9%
same,"viability, T/C","second compound 1 µM, first compound 0.003 µM",96.8%
same,"viability, T/C",[9],85.3%
same,"viability, T/C",[10],0.79%
same,"viability, T/C",[11],0.52%
same,"viability, T/C",[12],0.56%
same,"viability, T/C","second compound 3.16 µM, first compound 0.000949 µM",86.4%
same,"viability, T/C","second compound 3.16 µM, first compound 0.003 µM",90.7%
same,"viability, T/C",[13],82.9%
same,"viability, T/C",[14],1.35%
same,"viability, T/C",[15],0.62%
same,"viability, T/C",[16],0.61%
same,"viability, T/C","second compound 10 µM, first compound 0.000949 µM",120%
same,"viability, T/C","second compound 10 µM, first compound 0.003 µM",116%
same,"viability, T/C",[17],98.9%
same,"viability, T/C",[18],2.93%
same,"viability, T/C",[19],0.98%
same,"viability, T/C",[20],0.8%
